Reference: patent US11161842B2, “Bifunctional molecules for degradation of EGFR and methods of use” (Dana-Farber Cancer Institute, Inc., priority 2016, dated 2021)

What was measured:
[1] = biological target: T1, T790M/L858R transformed Ba/F3 cells (Homo sapiens, UniProt P00533, T790M/L858R, cells depend on it); assay: Ba/F3 cell proliferation (MTS) assay, T790M/L858R; assay type: cell-based, murine; conditions: for EC50: antiproliferative activity; for % control: compound at 1 μM, inhibition of growth as percent of control
T1 construct: The constructs were shuttled into the retroviral vector JP 1540 using the BD Creator™ System (BD Biosciences)
Excerpt: The EGFR mutant L858R, Del E746_A750, L858R/T790M, DelE746_A750/T790M, L858R/T790M/C797S and Del/T790M/C797S Ba/F3 cells have been previously described (Zhou, W., Ercan, D., Chen, L., Yun, C. H., Li, D., Capelletti, M., Cortot, A. B., Chirieac, L., Iacob, R. E., Padera, R., et al. “Novel mutant-selective EGFR kinase inhibitors against EGFR T790M,” Nature 462, (2009), 1070-1074). All cell lines were maintained in RPMI 1640 (Cellgro; Mediatech Inc., Herndon, Calif.) supplemented with 10% FBS 100 units/mL penicillin, 100 units/mL streptomycin, and 2 mM glutamine. L858R cells were maintained in ACL-4 media (Invitrogen, Carlsbad, Calif.) supplemented with 5% FBS, 100 units/mL penicillin, 100 units/mL streptomycin, and 2 mM glutamine. The EGFR I941R mutation was introduced via site directed mutagenesis using the Quick Change Site-Directed Mutagenesis kit (Stratagene; La Jolla, Calif.) according to the manufacturer's instructions. All constructs were confirmed by DNA sequencing. The constructs were shuttled into the retroviral vector JP 1540 using the BD Creator™ System (BD Biosciences). Ba/F3 cells were infected with retrovirus and according to standard protocols, as described previously (Zhou et al, Nature 2009). Stable clones were obtained by selection in puromycin (2 μg/ml).
Growth and inhibition of growth was assessed by MTS assay and was performed according to previously established methods (Zhou et al., Nature 2009). The MTS assay is a colorimetric method for determining the number of viable cells that is based on the bioreduction of MTS by cells to a formazan product that is soluble in cell culture medium and can be detected spectrophotometrically. Ba/F3 cells of different EGFR genotypes were exposed to treatment for 72 hours and the number of cells used per experiment determined empirically and has been previously established (Zhou et al., Nature 2009). All experimental points were set up in six wells and all experiments were repeated at least three times. […] The curves were fitted using a non-linear regression model with a sigmoidal dose response.
Compounds of Table 1 were tested at a concentration of 1 μM against T790M/L858R transformed Ba/F3 cells. The assay, as described in Example 42, measured inhibition of growth as a percent of the inhibitory activity of the control. In Table 1, A is 0<% control <25, B is 25<% control <50, C is 50<% control <75, and D is 75<% control.
Compounds of Table 2 were tested in a T790M/L858R transformed Ba/F3 cell line as described in Example 42 and the EC50 values were calculated. In Table 2, A is EC50<500 nM, B is 500 nM<EC50<1000 nM, C is 1000 nM<EC50<5000 nM, and D is 5000 nM<EC50.

[2] = biological target: T2, T790M/L858R/C797S transformed Ba/F3 cells (Homo sapiens, UniProt P00533, T790M/C797S/L858R, cells depend on it); assay: Ba/F3 cell proliferation (MTS) assay, T790M/L858R/C797S; assay type: cell-based, murine; conditions: antiproliferative activity
T2 construct: The constructs were shuttled into the retroviral vector JP 1540 using the BD Creator™ System (BD Biosciences)
T2 sequence (P00533 whole entry T790M/C797S/L858R): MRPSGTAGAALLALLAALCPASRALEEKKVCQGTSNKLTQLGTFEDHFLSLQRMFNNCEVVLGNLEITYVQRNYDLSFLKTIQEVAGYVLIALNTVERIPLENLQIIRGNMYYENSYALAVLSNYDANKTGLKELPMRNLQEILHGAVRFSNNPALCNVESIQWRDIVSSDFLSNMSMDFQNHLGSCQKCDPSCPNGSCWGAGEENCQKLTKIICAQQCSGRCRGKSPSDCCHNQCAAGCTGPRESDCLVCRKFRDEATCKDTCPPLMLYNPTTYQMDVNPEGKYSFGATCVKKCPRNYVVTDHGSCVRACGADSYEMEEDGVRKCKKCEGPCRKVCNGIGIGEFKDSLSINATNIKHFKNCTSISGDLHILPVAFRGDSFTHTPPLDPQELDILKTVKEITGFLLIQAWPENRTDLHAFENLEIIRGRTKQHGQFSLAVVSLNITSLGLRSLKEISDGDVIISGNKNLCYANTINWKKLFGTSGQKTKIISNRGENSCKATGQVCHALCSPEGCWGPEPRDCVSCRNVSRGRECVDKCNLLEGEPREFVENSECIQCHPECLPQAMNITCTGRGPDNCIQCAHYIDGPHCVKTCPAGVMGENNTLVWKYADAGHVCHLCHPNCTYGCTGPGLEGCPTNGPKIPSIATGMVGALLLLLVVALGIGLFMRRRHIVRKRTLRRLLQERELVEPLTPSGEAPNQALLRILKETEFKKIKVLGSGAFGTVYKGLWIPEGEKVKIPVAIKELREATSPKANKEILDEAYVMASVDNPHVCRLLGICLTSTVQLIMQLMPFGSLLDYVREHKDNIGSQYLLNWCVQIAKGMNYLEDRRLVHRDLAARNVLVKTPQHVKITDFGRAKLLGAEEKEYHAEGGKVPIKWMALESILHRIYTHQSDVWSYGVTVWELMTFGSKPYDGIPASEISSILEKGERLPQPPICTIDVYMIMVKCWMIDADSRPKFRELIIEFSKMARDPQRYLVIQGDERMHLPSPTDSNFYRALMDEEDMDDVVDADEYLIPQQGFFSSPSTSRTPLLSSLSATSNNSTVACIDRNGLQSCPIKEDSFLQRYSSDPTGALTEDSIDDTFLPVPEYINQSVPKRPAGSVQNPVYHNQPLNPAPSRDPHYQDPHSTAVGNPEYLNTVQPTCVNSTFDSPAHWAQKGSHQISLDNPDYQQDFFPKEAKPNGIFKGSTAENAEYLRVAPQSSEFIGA

T1 sequence (P00533 whole entry T790M/L858R): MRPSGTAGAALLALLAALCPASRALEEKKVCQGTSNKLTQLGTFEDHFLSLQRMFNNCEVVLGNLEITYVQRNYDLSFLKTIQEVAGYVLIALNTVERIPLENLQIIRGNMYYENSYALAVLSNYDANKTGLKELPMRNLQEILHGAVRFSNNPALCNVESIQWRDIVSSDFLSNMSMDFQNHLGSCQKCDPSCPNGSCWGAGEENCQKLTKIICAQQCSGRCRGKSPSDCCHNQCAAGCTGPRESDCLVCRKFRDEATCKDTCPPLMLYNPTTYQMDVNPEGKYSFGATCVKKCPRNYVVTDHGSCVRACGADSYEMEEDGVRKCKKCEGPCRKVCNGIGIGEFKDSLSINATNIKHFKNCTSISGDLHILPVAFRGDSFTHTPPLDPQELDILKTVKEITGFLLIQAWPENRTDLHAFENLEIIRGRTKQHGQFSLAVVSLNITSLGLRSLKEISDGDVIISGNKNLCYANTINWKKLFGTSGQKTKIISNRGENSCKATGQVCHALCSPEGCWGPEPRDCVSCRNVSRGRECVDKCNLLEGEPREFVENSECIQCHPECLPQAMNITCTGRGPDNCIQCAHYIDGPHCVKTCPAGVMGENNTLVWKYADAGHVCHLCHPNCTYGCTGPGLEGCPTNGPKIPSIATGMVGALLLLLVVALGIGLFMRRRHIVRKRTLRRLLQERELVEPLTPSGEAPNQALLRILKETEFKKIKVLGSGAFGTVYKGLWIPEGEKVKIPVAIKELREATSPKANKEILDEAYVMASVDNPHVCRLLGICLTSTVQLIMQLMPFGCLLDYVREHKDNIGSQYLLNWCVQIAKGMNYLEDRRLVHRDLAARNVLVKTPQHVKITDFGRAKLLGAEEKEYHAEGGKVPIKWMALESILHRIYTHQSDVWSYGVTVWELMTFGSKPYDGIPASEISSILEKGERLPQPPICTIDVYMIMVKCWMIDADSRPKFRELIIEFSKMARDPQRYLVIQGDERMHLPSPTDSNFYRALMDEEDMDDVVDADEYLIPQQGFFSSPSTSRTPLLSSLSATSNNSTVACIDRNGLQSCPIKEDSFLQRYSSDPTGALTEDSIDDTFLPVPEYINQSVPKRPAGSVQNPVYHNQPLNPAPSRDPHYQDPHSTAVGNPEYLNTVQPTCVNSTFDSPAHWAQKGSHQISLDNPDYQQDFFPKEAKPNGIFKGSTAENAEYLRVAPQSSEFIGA

## O=C1CCC(N2C(=O)c3cccc(NCCOCCOCCOCCC(=O)N4CCN(c5ccc(-c6ccc7c(c6)C(=O)N(C(C(=O)Nc6nccs6)c6ccccc6)C7)cc5)CC4)c3C2=O)C(=O)N1 (centres unmarked) [Compound I-1, 2-(6-(4-(4-(3-(2-(2-(2-((2-(2,6-Dioxopiperidin-3-yl)-1,3-dioxoisoindolin-4-yl)amino)ethoxy)ethoxy)ethoxy)propanoyl)piperazin-1-yl)phenyl)-1-oxoisoindolin-2-yl)-2-phenyl-N-(thiazol-2-yl)acetamide]
[1]
  EC50: < 500 nM
  % control: A (A is 0<% control <25)
[2]
  EC50: 500 to 1000 nM

## O=C1CCC(N2C(=O)c3cccc(NCCOCCOCCC(=O)N4CCN(c5ccc(-c6ccc7c(c6)C(=O)N(C(C(=O)Nc6nccs6)c6ccccc6)C7)cc5)CC4)c3C2=O)C(=O)N1 (centres unmarked) [Compound I-7, 2-(6-(4-(4-(3-(2-(2-((2-(2,6-Dioxopiperidin-3-yl)-1,3-dioxoisoindolin-4-yl)amino)ethoxy)ethoxy)propanoyl)piperazin-1-yl)phenyl)-1-oxoisoindolin-2-yl)-2-phenyl-N-(thiazol-2-yl)acetamide]
[1]
  % control: B (B is 25<% control <50)

## O=C1CCC(N2C(=O)c3cccc(NCCOCCC(=O)N4CCN(c5ccc(-c6ccc7c(c6)C(=O)N(C(C(=O)Nc6nccs6)c6ccccc6)C7)cc5)CC4)c3C2=O)C(=O)N1 (centres unmarked) [Compound I-8, 2-(6-(4-(4-(3-(2-((2-(2,6-Dioxopiperidin-3-yl)-1,3-dioxoisoindolin-4-yl)amino)ethoxy)propanoyl)piperazin-1-yl)phenyl)-1-oxoisoindolin-2-yl)-2-phenyl-N-(thiazol-2-yl)acetamide]
[1]
  % control: D (D is 75<% control)

## O=C1CCC(N2C(=O)c3cccc(NCCOCCOCCOCCN4CCN(c5ccc(-c6ccc7c(c6)C(=O)N(C(C(=O)Nc6nccs6)c6cc(F)ccc6O)C7)cc5)CC4)c3C2=O)C(=O)N1 (centres unmarked) [Compound I-10, 2-(6-(4-(4-(2-(2-(2-(2-((2-(2,6-Dioxopiperidin-3-yl)-1,3-dioxoisoindolin-4-yl)amino)ethoxy)ethoxy)ethoxy)ethyl)piperazin-1-yl)phenyl)-1-oxoisoindolin-2-yl)-2-(5-fluoro-2-hydroxyphenyl)-N-(thiazol-2-yl)acetamide]
[1]
  EC50: 1000 to 5000 nM
  % control: B (B is 25<% control <50)
[2]
  EC50: > 5000 nM

## O=C1CCC(N2C(=O)c3cccc(NCCCCCCN4CCN(c5ccc(-c6ccc7c(c6)C(=O)N(C(C(=O)Nc6nccs6)c6cc(F)ccc6O)C7)cc5)CC4)c3C2=O)C(=O)N1 (centres unmarked) [Compound I-11, 2-(6-(4-(4-(6-((2-(2,6-Dioxopiperidin-3-yl)-1,3-dioxoisoindolin-4-yl)amino)hexyl)piperazin-1-yl)phenyl)-1-oxoisoindolin-2-yl)-2-(5-fluoro-2-hydroxyphenyl)-N-(thiazol-2-yl)acetamide]
[1]
  EC50: 1000 to 5000 nM
  % control: B (B is 25<% control <50)
[2]
  EC50: > 5000 nM

## O=C1CCC(N2C(=O)c3cccc(NCCCCCCCCN4CCN(c5ccc(-c6ccc7c(c6)C(=O)N(C(C(=O)Nc6nccs6)c6cc(F)ccc6O)C7)cc5)CC4)c3C2=O)C(=O)N1 (centres unmarked) [Compound I-12, 2-(6-(4-(4-(8-((2-(2,6-Dioxopiperidin-3-yl)-1,3-dioxoisoindolin-4-yl)amino)octyl)piperazin-1-yl)phenyl)-1-oxoisoindolin-2-yl)-2-(5-fluoro-2-hydroxyphenyl)-N-(thiazol-2-yl)acetamide]
[1]
  EC50: 1000 to 5000 nM
  % control: B (B is 25<% control <50)
[2]
  EC50: > 5000 nM

## O=C1CCC(N2C(=O)c3cccc(NCCCCCCN4CCN(c5ccc(-c6ccc7c(c6)C(=O)N(C(C(=O)Nc6nccs6)c6ccccc6)C7)cc5)CC4)c3C2=O)C(=O)N1 (centres unmarked) [Compound I-17, 2-(6-(4-(4-(6-((2-(2,6-Dioxopiperidin-3-yl)-1,3-dioxoisoindolin-4-yl)amino)hexyl)piperazin-1-yl)phenyl)-oxoisoindolin-2-yl)2-phenyl-N-(thiazol-2-yl)acetamide]
[1]
  % control: C (C is 50<% control <75)

## O=C1CCC(N2C(=O)c3cccc(NCCCCCCCCN4CCN(c5ccc(-c6ccc7c(c6)C(=O)N(C(C(=O)Nc6nccs6)c6ccccc6)C7)cc5)CC4)c3C2=O)C(=O)N1 (centres unmarked) [Compound I-19, 2-(6-(4-(4-(8-((2-(2,6-Dioxopiperidin-3-yl)-1,3-dioxoisoindolin-4-yl)amino)octyl)piperazin-1-yl)phenyl)-1-oxoisoindolin-2-yl)-2-phenyl-N-(thiazol-2-yl)acetamide]
[1]
  % control: D (D is 75<% control)

## O=C1CCC(N2C(=O)c3cccc(NCCOCCOCCN4CCN(c5ccc(-c6ccc7c(c6)C(=O)N(C(C(=O)Nc6nccs6)c6ccccc6)C7)cc5)CC4)c3C2=O)C(=O)N1 (centres unmarked) [Compound I-21, 2-(6-(4-(4-(2-(2-(2-((2-(2,6-Dioxopiperidin-3-yl)-1,3-dioxoisoindolin-4-yl)amino)ethoxy)ethoxy)ethyl)piperazin-1-yl)phenyl)-1-oxoisoindolin-2-yl)-2-phenyl-N-(thiazol-2-yl)acetamide]
[1]
  % control: C (C is 50<% control <75)

## Cc1ncsc1-c1ccc(CNC(=O)[C@@H]2C[C@@H](O)CN2C(=O)[C@@H](NC(=O)CCOCCOCCOCCC(=O)N2CCN(c3ccc(-c4ccc5c(c4)C(=O)N(C(C(=O)Nc4nccs4)c4ccccc4)C5)cc3)CC2)C(C)(C)C)cc1 (stereo partly drawn) [Compound I-25, (2S,4R)-1-((2S)-2-(tert-Butyl)-4,16-dioxo-16-(4-(4-(3-oxo-2-(2-oxo-1-phenyl-2-(thiazol-2-ylamino)ethyl)isoindolin-5-yl)phenyl)piperazin-1-yl)-7,10,13-trioxa-3-azahexadecanoyl)-4-hydroxy-N-(4-(4-methylthiazol-5-yl)benzyl)pyrrolidine-2-carboxamide]
[1]
  % control: D (D is 75<% control)

## Cc1ncsc1-c1ccc(CNC(=O)[C@@H]2C[C@@H](O)CN2C(=O)[C@@H](NC(=O)CCOCCOCCOCCC(=O)N2CCN(c3ccc(-c4ccc5c(c4)C(=O)N(C(C(=O)Nc4nccs4)c4cc(F)ccc4O)C5)cc3)CC2)C(C)(C)C)cc1 (stereo partly drawn) [Compound I-26, (2S,4R)-1-((2S)-2-(tert-Butyl)-16-(4-(4-(2-(1-(5-fluoro-2-hydroxyphenyl)-2-oxo-2-(thiazol-2-ylamino)ethyl)-3-oxoisoindolin-5-yl)phenyl)piperazin-1-yl)-4,16-dioxo-7,10,13-trioxa-3-azahexadecanoyl)-4-hydroxy-N-(4-(4-methylthiazol-5-yl)benzyl)pyrrolidine-2-carboxamide]
[1]
  % control: D (D is 75<% control)

## CC1(N2C(=O)c3cccc(NCCOCCOCCOCCC(=O)N4CCN(c5ccc(-c6ccc7c(c6)C(=O)N(C(C(=O)Nc6nccs6)c6ccccc6)C7)cc5)CC4)c3C2=O)CCC(=O)NC1=O (centres unmarked) [Compound I-27, 2-(6-(4-(4-(3-(2-(2-(2-((2-(3-Methyl-2,6-dioxopiperidin-3-yl)-1,3-dioxoisoindolin-4-yl)amino)ethoxy)ethoxy)ethoxy)propanoyl)piperazin-1-yl)phenyl)-1-oxoisoindolin-2-yl)-2-phenyl-N-(thiazol-2-yl)acetamide]
[1]
  % control: D (D is 75<% control)

## O=C1CCC(N2C(=O)c3cccc(N4CCN(c5ccc(-c6ccc7c(c6)C(=O)N(C(C(=O)Nc6nccs6)c6ccccc6)C7)cc5)CC4)c3C2=O)C(=O)N1 (centres unmarked) [Compound I-35]
[1]
  % control: D (D is 75<% control)

## O=C(Nc1nccs1)C(c1ccccc1)N1Cc2ccc(-c3ccc(N4CCNCC4)cc3)cc2C1=O (centres unmarked) [TL Compd 1, 2-(1-oxo-6-(4-(piperazin-1-yl)phenyl)isoindolin-2-yl)-2-phenyl-N-(thiazol-2-yl)acetamide]
[1]
  % control: B (B is 25<% control <50)

## O=C(Nc1nccs1)C(c1cc(F)ccc1O)N1Cc2ccc(-c3ccc(N4CCNCC4)cc3)cc2C1=O (centres unmarked) [TL Compd 2]
[1]
  % control: D (D is 75<% control)
